This experiment concerns the target PAI-1 (Homo sapiens, UniProt P05121). The experiment can be described thus: PAI chromogenic substrate assay (first S2251 assay, tPA/plasminogen system). The class given is biochemical. The procedure, abridged:
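Compound preincubated with PAI-1, then added to a tPA/plasminogen system; residual tPA activity generates plasmin, which cleaves chromogenic substrate S2251, releasing p-nitroaniline read at 405 nm.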

Chain of PAI-1 (P05121 24-402): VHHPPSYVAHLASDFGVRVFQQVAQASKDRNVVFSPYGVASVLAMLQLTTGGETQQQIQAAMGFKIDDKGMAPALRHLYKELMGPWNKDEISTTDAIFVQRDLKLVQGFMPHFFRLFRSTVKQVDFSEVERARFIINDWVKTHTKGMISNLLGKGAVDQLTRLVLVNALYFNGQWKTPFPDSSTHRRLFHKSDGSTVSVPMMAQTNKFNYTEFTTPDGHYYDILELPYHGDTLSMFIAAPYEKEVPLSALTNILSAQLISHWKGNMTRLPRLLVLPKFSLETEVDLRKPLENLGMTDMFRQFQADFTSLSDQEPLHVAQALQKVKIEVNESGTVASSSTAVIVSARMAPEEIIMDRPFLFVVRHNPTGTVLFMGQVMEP

In the case of `COC(=O)c1cccc(/C=c2\[nH]c(=O)/c(=C/c3ccccc3)[nH]c2=O)c1` [Compound 62, 3-((3Z,6Z)-6-Benzylidene-2,5-dioxopiperazin-3-ylidene)methylbenzoic acid, methyl ester], the Inhibition of PAI-1 in the first S2251 chromogenic substrate assay is, setting by setting: (Concentration 12.5 μm) 36%; (Concentration 25 μm) 13%; (Concentration 50 μm) 33%; (Concentration 100 μm) 83%.

Consider `COc1ccc(/C=c2\[nH]c(=O)/c(=C/c3cccc(CSC(C)=O)c3)[nH]c2=O)cc1` [Compound 63, (3Z,6Z)-3-(4-Methoxybenzylidene)-6-(3-thioacetoxymethylbenzylidene)-2,5-piperazinedione], for which the Inhibition of PAI-1 in the first S2251 chromogenic substrate assay (Concentration 12.5 μm) turned out to be 36%, the Inhibition of PAI-1 in the first S2251 chromogenic substrate assay (Concentration 25 μm) is 44%, the Inhibition of PAI-1 in the first S2251 chromogenic substrate assay (Concentration 50 μm) stood at 70% and the Inhibition of PAI-1 in the first S2251 chromogenic substrate assay (Concentration 100 μm) was found to be 69%.

Take `O=c1[nH]/c(=C\c2cccc(CS)c2)c(=O)[nH]/c1=C\c1ccccc1` [Compound 64, (3Z,6Z)-6-Benzylidene-3-(3-mercaptomethylbenzylidene)-2,5-piperazinedione]: the Inhibition of PAI-1 in the first S2251 chromogenic substrate assay is 17% (Concentration 7.5 μm), 63% (Concentration 15 μm), 87% (Concentration 30 μm) and 100% (Concentration 60 μm).

As for `CC(C)(C)OC(=O)NCc1ccc(/C=c2\[nH]c(=O)/c(=C/c3ccccc3)[nH]c2=O)cc1` [Compound 66], the Inhibition of PAI-1 in the first S2251 chromogenic substrate assay reads like this: (Concentration 12.5 μm) 2%; (Concentration 25 μm) 46%; (Concentration 50 μm) 70%; (Concentration 100 μm) 85%.

Consider `CC(=O)Nc1ccc(/C=c2\[nH]c(=O)/c(=C/c3ccc(CNC(=O)OC(C)(C)C)cc3)[nH]c2=O)cc1` [Compound 68, (3Z,6Z)-3-(4-Acetamidobenzylidene)-6-(4-tert-butoxycarbonylaminomethylbenzylidene)-2,5-piperazinedione], for which the Inhibition of PAI-1 in the first S2251 chromogenic substrate assay reads like this: (Concentration 12.5 μm) 37%; (Concentration 25 μm) 67%; (Concentration 50 μm) 89%; (Concentration 100 μm) 63%.

On to `COc1ccc(/C=c2\[nH]c(=O)/c(=C/c3ccc(F)cc3F)[nH]c2=O)cc1` [Compound 69, (3Z,6Z)-3-(2,4-Difluorobenzylidene)-6-(4-methoxybenzylidene)-2,5-piperazinedione], for which the Inhibition of PAI-1 in the first S2251 chromogenic substrate assay is 3% (Concentration 12.5 μm), 14% (Concentration 25 μm), 40% (Concentration 50 μm) and 68% (Concentration 100 μm).

The molecule `COc1ccc(/C=c2\[nH]c(=O)/c(=C/c3ccccc3C(F)(F)F)[nH]c2=O)cc1` [Compound 70, (3Z,6Z)-3-(4-Methoxybenzylidene)-6-(2-trifluoromethylbenzylidene)-2,5-piperazinedione] returned an Inhibition of PAI-1 in the first S2251 chromogenic substrate assay (Concentration 12.5 μm) of 4%, an Inhibition of PAI-1 in the first S2251 chromogenic substrate assay (Concentration 25 μm) of 21%, an Inhibition of PAI-1 in the first S2251 chromogenic substrate assay (Concentration 50 μm) of 78% and an Inhibition of PAI-1 in the first S2251 chromogenic substrate assay (Concentration 100 μm) of 94%.

In the case of `CC(=O)Nc1ccc(/C=c2\[nH]c(=O)/c(=C/c3ccccc3F)[nH]c2=O)cc1` [Compound 71, (3Z,6Z)-3-(4-Acetamidobenzylidene)-6-(2-fluorobenzylidene)-2,5-piperazinedione], the Inhibition of PAI-1 in the first S2251 chromogenic substrate assay is 1% (Concentration 3.75 μm); 1% (Concentration 7.5 μm); 51% (Concentration 15 μm); 64% (Concentration 30 μm); 52% (Concentration 60 μm).

Regarding `CC(=O)Nc1ccc(/C=c2\[nH]c(=O)/c(=C/c3ccc(F)cc3)[nH]c2=O)cc1` [Compound 72, (3Z,6Z)-3-(4-Acetamidobenzylidene)-6-(4-fluorobenzylidene)-2,5-piperazinedione], the Inhibition of PAI-1 in the first S2251 chromogenic substrate assay was 2% (Concentration 3.75 μm); 1% (Concentration 7.5 μm); 18% (Concentration 15 μm); 75% (Concentration 30 μm); 76% (Concentration 60 μm).

As for `COc1ccc(/C=c2\[nH]c(=O)/c(=C/c3ccc(OC)cc3OC)[nH]c2=O)cc1` [Compound 73, (3Z,6Z)-3-(2,4-Dimethoxybenzylidene)-6-(4-methoxybenzylidene)-2,5-piperazinedione], the Inhibition of PAI-1 in the first S2251 chromogenic substrate assay by setting is: (Concentration 12.5 μm) 2%; (Concentration 25 μm) 1%; (Concentration 50 μm) 3%; (Concentration 100 μm) 50%.

Regarding `CN(C)CCCOc1ccc(/C=c2\[nH]c(=O)/c(=C/c3ccccc3)[nH]c2=O)cc1` [Compound 75, (3Z,6Z)-6-Benzylidene-3-(4-(3-N,N-dimethylaminopropoxy)benzylidene)-2,5-piperazinedione], the Inhibition of PAI-1 in the first S2251 chromogenic substrate assay runs as follows: (Concentration 6.25 μm) 2%; (Concentration 12.5 μm) 6%; (Concentration 25 μm) 33%; (Concentration 50 μm) 52%; (Concentration 100 μm) 59%.

`CC(=O)SCc1ccc(/C=c2\[nH]c(=O)/c(=C/c3ccccc3)[nH]c2=O)cc1` [Compound 76, (3Z,6Z)-6-Benzylidene-3-(4-thioacetoxymethylbenzylidene)-2,5-piperazinedione]: the Inhibition of PAI-1 in the first S2251 chromogenic substrate assay by setting is: (Concentration 6.25 μm) 2%; (Concentration 12.5 μm) 5%; (Concentration 25 μm) 50%; (Concentration 50 μm) 75%; (Concentration 100 μm) 66%.

Turning to `CC(=O)Nc1ccc(/C=c2\[nH]c(=O)/c(=C/c3ccc(F)cc3F)[nH]c2=O)cc1` [Compound 77], the Inhibition of PAI-1 in the first S2251 chromogenic substrate assay is, setting by setting: (Concentration 6.25 μm) 1%; (Concentration 12.5 μm) 61%; (Concentration 25 μm) 80%; (Concentration 50 μm) 66%; (Concentration 100 μm) 33%.

Molecule `CC(=O)Nc1ccc(/C=c2\[nH]c(=O)/c(=C/c3ccccc3C(F)(F)F)[nH]c2=O)cc1` [Compound 78, (3Z,6Z)-6-(4-Acetamidobenzylidene)-3-(2-trifluoromethylbenzylidene)-2,5-piperazinedione] yielded an Inhibition of PAI-1 in the first S2251 chromogenic substrate assay (Concentration 6.25 μm) of 2%; an Inhibition of PAI-1 in the first S2251 chromogenic substrate assay (Concentration 12.5 μm) of 4%; an Inhibition of PAI-1 in the first S2251 chromogenic substrate assay (Concentration 25 μm) of 36%; an Inhibition of PAI-1 in the first S2251 chromogenic substrate assay (Concentration 50 μm) of 57%; an Inhibition of PAI-1 in the first S2251 chromogenic substrate assay (Concentration 100 μm) of 30%.

For the molecule `CC(=O)Nc1ccc(/C=c2\[nH]c(=O)/c(=C/c3ccccc3Br)[nH]c2=O)cc1` [Compound 79, (3Z,6Z)-6-(4-Acetamidobenzylidene)-3-(2-bromobenzylidene)-2,5-piperazinedione], the Inhibition of PAI-1 in the first S2251 chromogenic substrate assay is, setting by setting: (Concentration 6.25 μm) 1%; (Concentration 12.5 μm) 2%; (Concentration 25 μm) 27%; (Concentration 50 μm) 55%; (Concentration 100 μm) 42%.

For `COc1ccc(/C=c2\[nH]c(=O)/c(=C/c3ccc(C(N)=O)cc3)[nH]c2=O)cc1` [Compound 80, 4-[(3Z,6Z)-6-(4-Methoxybenzylidene)-2,5-dioxopiperazin-3-ylidene]methylbenzamide], the Inhibition of PAI-1 in the first S2251 chromogenic substrate assay runs as follows: (Concentration 12.5 μm) 0%; (Concentration 25 μm) 1%; (Concentration 50 μm) 9%; (Concentration 100 μm) 53%.

Take `COc1ccc(/C=c2\[nH]c(=O)/c(=C/c3ccc(OC(=O)C(C)(C)C)cc3)[nH]c2=O)cc1` [Compound 81, (3Z,6Z)-3-(4-Methoxybenzylidene)-6-(4-trimethylacetoxybenzylidene)-2,5-piperazinedione]: the Inhibition of PAI-1 in the first S2251 chromogenic substrate assay is 0% (Concentration 12.5 μm), 1% (Concentration 25 μm), 1% (Concentration 50 μm) and 64% (Concentration 100 μm).

Take `CC(=O)Nc1ccc(/C=c2\[nH]c(=O)/c(=C/c3ccc(OC(=O)C(C)(C)C)cc3)[nH]c2=O)cc1` [Compound 82, (3Z,6Z)-3-(4-Acetamidobenzylidene)-6-(4-trimethylacetoxybenzylidene)-2,5-piperazinedione]: the Inhibition of PAI-1 in the first S2251 chromogenic substrate assay turned out to be 1% (Concentration 12.5 μm), 1% (Concentration 25 μm), 3% (Concentration 50 μm) and 80% (Concentration 100 μm).

As to `COC(=O)Nc1ccc(/C=c2\[nH]c(=O)/c(=C/c3ccc(OC)cc3)[nH]c2=O)cc1` [Compound 83, (3Z,6Z)-3-(4-Methoxybenzylidene)-6-(4-methoxycarbonylaminobenzylidene)-2,5-piperazinedione], the Inhibition of PAI-1 in the first S2251 chromogenic substrate assay runs as follows: (Concentration 12.5 μm) 1%; (Concentration 25 μm) 1%; (Concentration 50 μm) 1%; (Concentration 100 μm) 56%.
